# Data from US9834514B2, “Antibiotic sensitivity-restoring and photosensitive agents” (New Mexico Tech Research Foundation, priority 2015, dated 2017).
# Assays:
# HeLa cells = assay: Compound 1 in DMSO versus liposomes on HeLa cells with light (MTT); assay type: cell-based; conditions: 1 μM; for Compound 1 pre-incubation to max killing: in the dark
# Procedure: An effective period of pre-incubation with the drug in the dark was determined to be about 28 hours for compound 1 in DMSO and 60 hours for liposomal delivery of compound 1. The cells were then irradiated with continuous white light for 2 minutes at a distance of 6.5 cm using a LumaCare™ light source. An MTT assay was carried out to evaluate cell viability 48 hours later.
# [1] = molecular target: T1, NorA efflux pumps in MRSA (Staphylococcus aureus, UniProt P0A0J7); assay: Fluorescent binding assay of compound 1 with MRSA and S. aureus; conditions: 1 μM and 10 μM; MRSA compared to S. aureus; FIG. 1
# T1 construct: endogenous in cells
# T1 sequence (P0A0J7 whole entry): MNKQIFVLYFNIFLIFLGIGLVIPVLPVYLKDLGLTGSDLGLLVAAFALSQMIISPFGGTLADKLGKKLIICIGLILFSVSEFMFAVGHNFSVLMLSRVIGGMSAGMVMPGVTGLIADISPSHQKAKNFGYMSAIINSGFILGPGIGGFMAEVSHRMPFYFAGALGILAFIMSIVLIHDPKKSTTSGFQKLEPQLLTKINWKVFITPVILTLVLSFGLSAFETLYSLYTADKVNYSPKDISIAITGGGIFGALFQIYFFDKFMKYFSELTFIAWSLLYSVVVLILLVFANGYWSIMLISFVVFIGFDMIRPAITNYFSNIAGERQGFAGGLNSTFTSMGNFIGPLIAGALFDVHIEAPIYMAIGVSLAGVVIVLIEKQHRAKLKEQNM
# Procedure: The error bars represent data from three independent measurements.
# S. aureus and MRSA cells (about 10^8 CFU/mL) were treated with two doses of compound 1 (1 μM and 10 μM), and the cells were incubated at 37° C. for 15 minutes on a rotary shaker set at 150 rpm. After the incubation, the cells were transferred to a 96-well fluorescent plate reader and read every minute for 30 minutes at excitation wavelengths of 334 nm, 380 nm, and 407 nm, and an emission wavelength of 508 nm. The controls were: 1×PBS, compound 1 (1 μM and 10 μM) in 1×PBS, S. aureus in 1×PBS, and MRSA in 1×PBS.
# [2] = tested on: S. pyogenes (ATCC No. 8133); assay: Light-activated killing, colony counts; assay type: cell-based; conditions: for Dark Toxicity: no light; for Light Toxicity: white light 2 minutes
# Procedure: (§1) Dose-dependent effects of treating bacteria with compound 1 and irradiation with white light were assessed by treating 10^8 CFU/mL of cells with compound 1, followed by irradiation with white light for 2 minutes. Compound 1 was added at a specific concentration to 1 mL of a 10^8 CFU/mL suspension of the respective bacterial cells, and the cells were incubated at 37° C. for approximately 45 minutes on a rotary shaker at 150 rpm. 0.5 mL of the cell suspension was removed and placed into the wells of a sterile ceramic drop plate, and then the cells were irradiated with white light from a Lumacare™ LC 122A light source for 2 minutes at a distance of approximately 3 cm. The time and distance of the light application delivered about 85 J/cm^2 of 400-700 nm light to the sample. After being irradiated, ten-fold dilutions were made of each cell sample. The dilutions were drip-streaked onto a tryptic soy agar (TSA) plate and incubated at 37° C. for 18-24 hours. Enumeration of bacteria was determined from the dilution, which produced a drip-streak containing approximately 30-300 colonies. After counting the colonies, the CFU/mL was calculated by applying the respective dilution factor and a factor of 100 to account for the 10 μL of sample taken. Appropriate controls were prepared, including cells with no treatment, cells with only compound 1 added, and cells only treated with light.
# The error bars in FIG. 12 represent the variations between three replicate determinations.
# [3] = Stability of the formulation at 40° C. (dynamic light scattering); assay type: physicochemical; conditions: in DMSO
# Procedure: The stability of the formulation was determined using dynamic light scattering (DLS) to measure the mean size and standard deviation, both of which remained consistent. The experiments were repeated after the indicated periods, and the outcome of compound 1 photodynamic therapy was essentially the same in terms of cell killing.
# MRSA (ATCC No. BAA-44) = assay: Potentiation of antibiotic activity with 10 μM compound 1 (CFU/mL); assay type: cell-based, S. aureus
# Procedure: The MICs for the antibiotics in the absence of compound 1 were calculated by adjusting the cells to 5×10^5 CFU/mL with McFarland Turbidity Standard (0.5) followed by the addition of an antibiotic. The cells were then incubated at 37° C. for 18 hours on a rotary shaking incubator at 100 rpm. Finally, MTT was added to the cells to assess viability.
# To assess the potentiation of antibiotic activity, the cells were adjusted to 5×10^5 CFU/mL with McFarland Turbidity Standard (0.5). Compound 1 was then added at 10 μM, and the cells were incubated at 37° C. for 45 minutes. The desired antibiotic was then added at three sub-inhibitory concentrations, and the cells were incubated at 37° C. for 18 hours on a rotary shaking incubator at 100 rpm. The samples were then diluted ten-fold, drip streaked onto a TSA plate, and incubated for 18 hours at 37° C. The resulting cell colonies were counted, and the CFU/mL values were calculated.
# A. baumannii = assay: Treatment with compound 1 and PMB at fixed concentrations, with and without white light; assay type: cell-based
# Source text: FIG. 53 is an example of the treatment of A. baumannii with compound 1 and PMB at fixed concentrations with and without irradiation using white light (λ).
# VRE (ATCC No. 51299) = assay: Light-activated killing, colony counts; assay type: cell-based, Enterococcus faecalis; conditions: for Dark Toxicity: no light; for Light Toxicity: white light 2 minutes
# Procedure: as §1
# The error bars in FIG. 11 represent the variations between three replicate determinations.
# E. coli = assay: Treatment with compound 1 and PMB at fixed concentrations, with and without white light; assay type: cell-based
# Source text: FIG. 54 is an example of the treatment of E. coli with compound 1 and PMB at fixed concentrations with and without irradiation using white light (λ).
# Gram-positive bacteria = assay: Bacterial patterning (chessboard mask) with light and compound 1; assay type: cell-based
# Procedure: A chessboard mask was then placed on top of the agar plate. […] The agar plate was then inoculated with bacteria and incubated overnight at 37° C.
# [4] = tested on: S. mutans (Ward's 85W 2357); assay: Light-activated killing, colony counts; assay type: cell-based; conditions: for Dark Toxicity: no light; for Light Toxicity: white light 2 minutes
# Procedure: as §1
# The error bars in FIG. 13 represent the variations between three replicate determinations.
# S. aureus ATCC 29213 = assay: Resensitization to antibiotics (log reduction, TABLE 29); assay type: cell-based
smiles,measurement,setting,value
Clc1ccc(/C=C/c2[nH]c3ccccc3c2/C=C/c2ccc(Cl)cc2)cc1 [Compound 1],"Compound 1 (no light), killing",HeLa cells,6% killing
same,"Compound 1 + light, killing","HeLa cells; continuous white light 2 minutes, MTT 48 hours later",77% killing
same,Compound 1 pre-incubation to max killing,HeLa cells,28 h
same,Compound 1 pre-incubation to max killing,HeLa cells; listed as compound 1,about 28 hours
same,binding of compound 1 by cells (fluorescence),[1],MRSA was able to bind more of compound 1
same,Dark Toxicity,[2]; 0.1 μM,7.13 × 10^6 ± 1.10 × 10^6 CFU/mL
same,Light Toxicity,[2]; 0.1 μM,None Detected (<100 CFU/mL)
same,Dark Toxicity,[2]; 0.5 μM,1.40 × 10^6 ± 7.05 × 10^5 CFU/mL
same,Light Toxicity,[2]; 0.5 μM,None Detected (<100 CFU/mL)
same,Dark Toxicity,[2]; 1.0 μM,4.13 × 10^6 ± 9.07 × 10^5 CFU/mL
same,Light Toxicity,[2]; 1.0 μM,None Detected (<100 CFU/mL)
same,Dark Toxicity,[2]; 5.0 μM,5.01 × 10^5 ± 4.07 × 10^5 CFU/mL
same,Light Toxicity,[2]; 5.0 μM,None Detected (<100 CFU/mL)
same,Stability at 40° C.,[3],>2 months
same,potentiation of tetracycline (CFU/mL),MRSA (ATCC No. BAA-44); FIG. 18,tetracycline was more efficacious in cell killing in the presence of compound 1
same,potentiation of doxycycline (CFU/mL),MRSA (ATCC No. BAA-44); FIG. 19,doxycycline was more efficacious in cell killing in the presence of compound 1
same,potentiation of norfloxacin (CFU/mL),MRSA (ATCC No. BAA-44); FIG. 20,norfloxacin was more efficacious in cell killing in the presence of compound 1
same,potentiation of dicloxicillin (CFU/mL),MRSA (ATCC No. BAA-44); FIG. 21,dicloxicillin was more efficacious in cell killing in the presence of compound 1
same,potentiation of oxacillin (CFU/mL),MRSA (ATCC No. BAA-44); FIG. 22,oxacillin was more efficacious in cell killing in the presence of compound 1
same,potentiation of penicillin G (CFU/mL),MRSA (ATCC No. BAA-44); FIG. 23,penicillin G was more efficacious in cell killing in the presence of compound 1
same,potentiation of tobramycin (CFU/mL),MRSA (ATCC No. BAA-44); FIG. 24,tobramycin was more efficacious in cell killing in the presence of compound 1
same,potentiation of vancomycin (CFU/mL),MRSA (ATCC No. BAA-44); FIG. 25,vancomycin was more efficacious in cell killing in the presence of compound 1
same,"cell killing with compound 1, PMB and white light",A. baumannii; FIG. 53,PMB was more efficacious in cell killing when co-administered with compound 1 and light
same,killing by combination of compound 1 and PMB (CFU),"A. baumannii; compared to either agent alone, FIG. 16",effective at killing A. baumannii
same,Dark Toxicity,VRE (ATCC No. 51299); 0.1 μM,6.50 × 10^8 ± 5.40 × 10^8 CFU/mL
same,Light Toxicity,VRE (ATCC No. 51299); 0.1 μM,7.00 × 10^2 ± 8.19 × 10^2 CFU/mL
same,Dark Toxicity,VRE (ATCC No. 51299); 0.5 μM,6.50 × 10^8 ± 1.32 × 10^8 CFU/mL
same,Light Toxicity,VRE (ATCC No. 51299); 0.5 μM,2.67 × 10^2 ± 4.62 × 10^2 CFU/mL
same,Dark Toxicity,VRE (ATCC No. 51299); 1.0 μM,6.20 × 10^8 ± 2.62 × 10^8 CFU/mL
same,Light Toxicity,VRE (ATCC No. 51299); 1.0 μM,None detected (<100 CFU/mL)
same,Dark Toxicity,VRE (ATCC No. 51299); 5.0 μM,4.55 × 10^5 ± 8.87 × 10^5 CFU/mL
same,Light Toxicity,VRE (ATCC No. 51299); 5.0 μM,None detected (<100 CFU/mL)
same,"cell killing with compound 1, PMB and white light",E. coli; FIG. 54,PMB was more efficacious in cell killing when co-administered with compound 1 and light
same,killing by combination of compound 1 and PMB (CFU),"E. coli; compared to either agent alone, FIG. 17",effective at killing E. coli
same,MIC,Gram-positive bacteria,400 µM
same,bacterial growth on irradiated agar plate,"Gram-positive bacteria; agar with 20 μM compound 1, white light through chessboard mask, FIG. 5",inhibition of bacterial growth in the illuminated parts of the agar plate
same,Dark Toxicity,[4]; 0.1 μM,2.6 × 10^8 ± 5.57 × 10^7 CFU/mL
same,Light Toxicity,[4]; 0.1 μM,2.35 × 10^5 ± 3.50 × 10^5 CFU/mL
same,Dark Toxicity,[4]; 0.5 μM,1.44 × 10^8 ± 4.46 × 10^7 CFU/mL
same,Light Toxicity,[4]; 0.5 μM,2.33 × 10^3 ± 1.54 × 10^3 CFU/mL
same,Dark Toxicity,[4]; 1.0 μM,2.1 × 10^5 ± 1.13 × 10^5 CFU/mL
same,Light Toxicity,[4]; 1.0 μM,None Detected (<100 CFU/mL)
same,Dark Toxicity,[4]; 5.0 μM,5.5 × 10^4 ± 2.48 × 10^4 CFU/mL
same,Light Toxicity,[4]; 5.0 μM,None Detected (<100 CFU/mL)
same,Log Reduction,"S. aureus ATCC 29213; compound 1 μM, Light (2 min)",6
same,Log Reduction,"S. aureus ATCC 29213; compound 5 μM, Norfloxacin (0.5 μg/mL)",6
same,Log Reduction,"S. aureus ATCC 29213; compound 5 μM, Tetracycline (0.1 μg/mL)",5
